Assay results as given in ChEMBL document CHEMBL3856280, “Targeting the HSP60/10 chaperonin systems of Trypanosoma brucei as a strategy for treating African sleeping sickness” (Bioorg Med Chem Lett, 2016).

Key:
[1] = biological target: T1, E. coli GroEL/ES (Escherichia coli, UniProt P0A6F5); experiment: Inhibition of Escherichia coli GroEL/GroES-ATPase activity expressed in Escherichia coli DH5alpha/BL21 (DE3) assessed as inhibition of denatured MDH refolding preincubated for 10 mins followed by ATP addition measured after 20 to 40 mins by malachite green dye based fluorescence assay
T1 sequence (P0A6F5 whole entry, looked up): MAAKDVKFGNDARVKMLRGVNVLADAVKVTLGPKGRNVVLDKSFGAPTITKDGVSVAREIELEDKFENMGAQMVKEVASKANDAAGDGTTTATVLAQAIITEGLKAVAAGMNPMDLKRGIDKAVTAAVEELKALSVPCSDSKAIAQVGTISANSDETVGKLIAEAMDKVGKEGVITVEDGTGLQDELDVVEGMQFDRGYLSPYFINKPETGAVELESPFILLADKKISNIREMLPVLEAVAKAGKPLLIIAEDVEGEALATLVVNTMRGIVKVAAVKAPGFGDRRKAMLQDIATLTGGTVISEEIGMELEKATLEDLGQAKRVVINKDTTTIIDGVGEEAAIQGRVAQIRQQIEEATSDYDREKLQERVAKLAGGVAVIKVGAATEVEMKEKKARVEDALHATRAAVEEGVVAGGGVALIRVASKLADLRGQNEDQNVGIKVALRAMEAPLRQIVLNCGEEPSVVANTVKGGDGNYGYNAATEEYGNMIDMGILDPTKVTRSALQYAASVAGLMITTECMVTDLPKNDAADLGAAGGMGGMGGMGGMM

[2] = Inhibition of pig heart native MDH reporter reaction after 20 to 40 mins by fluorescence based assay; set-up: species or system Sus scrofa
[3] = biological target: T1, E. coli GroEL/ES; experiment: Inhibition of Escherichia coli GroEL/GroES expressed in Escherichia coli DH5alpha/BL21 (DE3) assessed as inhibition of denatured MDH refolding preincubated for 10 mins followed by ATP addition measured after 20 to 40 mins by fluorescence based assay
[4] = Cytotoxicity against human THLE3 cells assessed as reduction in cell viability after 48 hrs by alamar blue assay; assay type: toxicity, cell-based
[5] = biological target: T2, HSP60/HSP10 (Homo sapiens, UniProt P10809); experiment: Inhibition of human mitochondrial HSP60/HSP10 expressed in Escherichia coli DH5alpha/BL21 (DE3) assessed as inhibition of denatured MDH refolding preincubated for 10 mins followed by ATP addition measured after 40 to 60 mins by fluorescence based assay
T2 sequence (P10809 whole entry): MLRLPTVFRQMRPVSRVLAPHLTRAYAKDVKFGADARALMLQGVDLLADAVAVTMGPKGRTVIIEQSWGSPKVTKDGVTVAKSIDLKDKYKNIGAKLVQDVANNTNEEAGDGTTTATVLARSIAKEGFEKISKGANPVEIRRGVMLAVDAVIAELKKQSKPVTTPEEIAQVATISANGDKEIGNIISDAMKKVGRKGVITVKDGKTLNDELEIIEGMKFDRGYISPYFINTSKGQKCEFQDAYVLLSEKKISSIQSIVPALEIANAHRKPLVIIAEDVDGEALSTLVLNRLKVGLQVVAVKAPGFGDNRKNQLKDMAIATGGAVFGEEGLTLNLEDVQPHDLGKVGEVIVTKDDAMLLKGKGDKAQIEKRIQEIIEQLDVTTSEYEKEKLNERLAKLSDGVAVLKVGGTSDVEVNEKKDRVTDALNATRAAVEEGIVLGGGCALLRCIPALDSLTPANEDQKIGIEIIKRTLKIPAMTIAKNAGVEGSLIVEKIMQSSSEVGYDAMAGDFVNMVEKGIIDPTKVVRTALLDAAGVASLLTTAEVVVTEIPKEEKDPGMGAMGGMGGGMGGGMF
T2 sequence (P61604 whole entry, further chain): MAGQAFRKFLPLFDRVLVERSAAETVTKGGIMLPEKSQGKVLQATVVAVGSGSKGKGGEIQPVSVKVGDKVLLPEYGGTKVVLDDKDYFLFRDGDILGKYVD

[6] = Cytotoxicity against HEK293 cells assessed as reduction in cell viability after 48 hrs by alamar blue assay; assay type: toxicity, cell-based; conditions: human
[7] = biological target: T2, HSP60/HSP10; experiment: Inhibition of human mitochondrial HSP60/HSP10-ATPase activity expressed in Escherichia coli DH5alpha/BL21 (DE3) assessed as inhibition of denatured MDH refolding preincubated for 10 mins followed by ATP addition measured after 40 to 60 mins by malachite green dye based fluorescence assay
[8] = tested on: Trypanosoma brucei brucei; experiment: Antitrypanosomal activity against Trypanosoma brucei brucei Lister 427 VSG 221 [TetR T7RNAP] transgenic bloodstream forms assessed as reduction in cell viability after 48 hrs by alamar blue assay; assay type: functional; conditions: Lister 427 VSG 221, 48 h

In the case of `O=S(=O)(Nc1ccc(-c2nc3cc(NS(=O)(=O)c4cccc(Br)c4)ccc3o2)cc1)c1cccc(Br)c1`, the IC50 [1] is reported as 45 µM, the IC50 [2] is reported as > 63 µM and the IC50 [3] is reported as 23 µM. For the same molecule, the EC50 at 48 h [4] was 21 µM, the IC50 [5] was > 100 µM and the EC50 at 48 h [6] was 25 µM. The IC50 [7] was > 250 µM and the EC50 [8] was 8 µM.

For `Nc1ccc(S(=O)(=O)Nc2ccc(-c3nc4cc(NS(=O)(=O)c5ccc(N)cc5)ccc4o3)cc2)cc1`, the IC50 [1] was 1.7 µM, the IC50 [2] was > 63 µM and the IC50 [3] was 1.4 µM. It also gave an EC50 at 48 h [4] of 38 µM, an IC50 [5] of 68 µM and an EC50 at 48 h [6] of 59 µM. The IC50 [7] was 224 µM and the EC50 [8] was 22 µM.

In the case of `COc1ccc(S(=O)(=O)Nc2ccc(-c3nc4cc(NS(=O)(=O)c5ccc(OC)cc5)ccc4o3)cc2)cc1`, the IC50 [1] is reported as 84 µM, the IC50 [2] is reported as > 63 µM and the IC50 [3] is reported as 36 µM. For the same molecule, the EC50 at 48 h [4] was > 100 µM, the IC50 [5] was > 100 µM and the EC50 at 48 h [6] was 88 µM. For the same molecule, the IC50 [7] was > 250 µM and the EC50 [8] was 3.3 µM.

For `Cc1ccccc1S(=O)(=O)Nc1ccc(-c2nc3cc(NS(=O)(=O)c4ccccc4C)ccc3o2)cc1`, the IC50 [1] was 194 µM, the IC50 [2] was > 63 µM and the IC50 [3] was > 100 µM. For the same molecule, the EC50 at 48 h [4] was 17 µM, the IC50 [5] was > 100 µM and the EC50 at 48 h [6] was 25 µM. The IC50 [7] was > 250 µM and the EC50 [8] was 1.8 µM.

With `Nc1ccccc1S(=O)(=O)Nc1ccc(-c2nc3cc(NS(=O)(=O)c4ccccc4N)ccc3o2)cc1` the IC50 [1] was > 250 µM, the IC50 [2] was > 63 µM and the IC50 [3] was 10 µM. For the same molecule, the EC50 at 48 h [4] was 18 µM, the IC50 [5] was > 100 µM and the EC50 at 48 h [6] was 14 µM. For the same molecule, the IC50 [7] was > 250 µM and the EC50 [8] was 3.3 µM.

For `O=[N+]([O-])c1ccc(S(=O)(=O)Nc2ccc(-c3nc4cc(NS(=O)(=O)c5ccc([N+](=O)[O-])cc5)ccc4o3)cc2)cc1`, the IC50 [1] was > 250 µM, the IC50 [2] was > 63 µM and the IC50 [3] was 26 µM. The EC50 at 48 h [4] was 36 µM, the IC50 [5] was 65 µM and the EC50 at 48 h [6] was 59 µM. The IC50 [7] was > 250 µM and the EC50 [8] was 15 µM.

In the case of `Nc1cccc(S(=O)(=O)Nc2ccc(-c3nc4cc(NS(=O)(=O)c5cccc(N)c5)ccc4o3)cc2)c1`, the IC50 [1] is reported as 9.6 µM, the IC50 [2] is reported as > 63 µM and the IC50 [3] is reported as 2.8 µM. For the same molecule, the EC50 at 48 h [4] was 30 µM, the IC50 [5] was 87 µM and the EC50 at 48 h [6] was 58 µM. The IC50 [7] was 127 µM and the EC50 [8] was 15 µM.

With `O=[N+]([O-])c1ccccc1S(=O)(=O)Nc1ccc(-c2nc3cc(NS(=O)(=O)c4ccccc4[N+](=O)[O-])ccc3o2)cc1` the IC50 [1] was 3.1 µM, the IC50 [2] was > 63 µM and the IC50 [3] was 3.6 µM. For the same molecule, the EC50 at 48 h [4] was 93 µM, the IC50 [5] was 75 µM and the EC50 at 48 h [6] was 60 µM. For the same molecule, the IC50 [7] was 194 µM and the EC50 [8] was > 42 µM.

For `O=S(=O)(Nc1ccc(-c2nc3cc(NS(=O)(=O)c4cccc(C(F)(F)F)c4)ccc3o2)cc1)c1cccc(C(F)(F)F)c1`, the IC50 [1] was 216 µM, the IC50 [2] was > 63 µM and the IC50 [3] was 15 µM. The EC50 at 48 h [4] was 19 µM, the IC50 [5] was > 100 µM and the EC50 at 48 h [6] was 15 µM. For the same molecule, the IC50 [7] was > 250 µM and the EC50 [8] was 4.8 µM.

With `O=S(=O)(Nc1ccc(-c2nc3cc(NS(=O)(=O)c4ccc(Cl)cc4)ccc3o2)cc1)c1ccc(Cl)cc1` the IC50 [1] was 35 µM, the IC50 [2] was > 63 µM and the IC50 [3] was 23 µM. It also gave an EC50 at 48 h [4] of 18 µM, an IC50 [5] of 96 µM and an EC50 at 48 h [6] of 13 µM. For the same molecule, the IC50 [7] was > 250 µM and the EC50 [8] was 3.2 µM.

In the case of `COc1ccccc1S(=O)(=O)Nc1ccc(-c2nc3cc(NS(=O)(=O)c4ccccc4OC)ccc3o2)cc1`, the IC50 [1] is reported as > 250 µM, the IC50 [2] is reported as > 63 µM and the IC50 [3] is reported as 69 µM. For the same molecule, the EC50 at 48 h [4] was > 100 µM, the IC50 [5] was > 100 µM and the EC50 at 48 h [6] was 79 µM. For the same molecule, the IC50 [7] was > 250 µM and the EC50 [8] was 2.7 µM.

For `O=S(=O)(Nc1ccc(-c2nc3cc(NS(=O)(=O)c4ccc(Br)cc4)ccc3o2)cc1)c1ccc(Br)cc1`, the IC50 [1] was 19 µM, the IC50 [2] was > 63 µM and the IC50 [3] was 24 µM. For the same molecule, the EC50 at 48 h [4] was 16 µM, the IC50 [5] was > 100 µM and the EC50 at 48 h [6] was 22 µM. For the same molecule, the IC50 [7] was > 250 µM and the EC50 [8] was 2.4 µM.

In the case of `O=S(=O)(Nc1ccc(-c2nc3cc(NS(=O)(=O)c4ccccc4Br)ccc3o2)cc1)c1ccccc1Br`, the IC50 [1] is reported as 144 µM, the IC50 [2] is reported as > 63 µM and the IC50 [3] is reported as 63 µM. The EC50 at 48 h [4] was 37 µM, the IC50 [5] was > 100 µM and the EC50 at 48 h [6] was 28 µM. For the same molecule, the IC50 [7] was > 250 µM and the EC50 [8] was 28 µM.

In the case of `O=S(=O)(Nc1ccc(-c2nc3cc(NS(=O)(=O)c4ccccc4Cl)ccc3o2)cc1)c1ccccc1Cl`, the IC50 [1] is reported as 131 µM, the IC50 [2] is reported as > 63 µM and the IC50 [3] is reported as 46 µM. The EC50 at 48 h [4] was 24 µM, the IC50 [5] was > 100 µM and the EC50 at 48 h [6] was 75 µM. For the same molecule, the IC50 [7] was > 250 µM and the EC50 [8] was 5.9 µM.

In the case of `O=S(=O)(Nc1ccc(-c2nc3cc(NS(=O)(=O)c4ccc(O)cc4)ccc3o2)cc1)c1ccc(O)cc1`, the IC50 [1] is reported as 0.31 µM, the IC50 [2] is reported as 50 µM and the IC50 [3] is reported as 0.34 µM. The EC50 at 48 h [4] was 41 µM, the IC50 [5] was 11 µM and the EC50 at 48 h [6] was 38 µM. The IC50 [7] was 59 µM and the EC50 [8] was 21 µM.
